# Biological target: Clitocybe nebularis lectin (CNL) (Clitocybe nebularis, UniProt B2ZRS9)
# Test: hemagglutination inhibition assay, human group A erythrocytes
# Settings: CNL 18.6 µg/ml; 20 mM Tris/HCl, 130 mM NaCl, pH 7.5; room temperature
# Clitocybe nebularis lectin (CNL), sequence (B2ZRS9 2-149): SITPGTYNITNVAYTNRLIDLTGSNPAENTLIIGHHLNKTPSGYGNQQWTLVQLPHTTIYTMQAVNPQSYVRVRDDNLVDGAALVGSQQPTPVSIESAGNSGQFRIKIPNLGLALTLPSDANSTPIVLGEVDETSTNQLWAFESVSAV
structure (smiles),measurement,value
OC[C@H]1O[C@@H](O[C@H]2[C@H](O)[C@@H](O)C(O)O[C@@H]2CO)[C@H](O)[C@@H](O)[C@H]1O (stereo partly shown) [lactose],minimum inhibitory concentration,4.65 mM
